Patent US9556205B2, “Fungicide N-[(trisubstitutedsilyl)methyl]-carboxamide derivatives” (BAYER INTELLECTUAL PROPERTY GMBH, priority 2010, dated 2017)

Key:
[1] = log P by HPLC on reversed-phase column (C18), EEC Directive 79/831 Annex V.A8; assay type: physicochemical; conditions: 40° C., 0.1% aqueous formic acid and acetonitrile, linear gradient 10% to 90% acetonitrile
Description: In table 1, the log P values were determined in accordance with EEC Directive 79/831 Annex V.A8 by HPLC (High Performance Liquid Chromatography) on a reversed-phase column (C18), using the method described below:
Temperature: 40° C.; Mobile phases: 0.1% aqueous formic acid and acetonitrile; linear gradient from 10% acetonitrile to 90% acetonitrile.
Calibration was carried out using unbranched alkan-2-ones (comprising 3 to 16 carbon atoms) with known log P values (determination of the log P values by the retention times using linear interpolation between two successive alkanones). lambda-max-values were determined using UV-spectra from 200 nm to 400 nm and the peak values of the chromatographic signals.

[2] = tested on: Alternaria solani; test: In vivo preventive test on Alternaria solani (tomato); conditions: 500 ppm of active ingredient, evaluated 7 days after inoculation
Description: Solvent: 49 parts by weight of N,N-dimethylformamide Emulsifier: 1 part by weight of Alkylarylpolyglycolether To produce a suitable preparation of active compound, 1 part by weight of active compound is mixed with the stated amounts of solvent and emulsifier, and the concentrate is diluted with water to the desired concentration. To test for preventive activity, young plants are sprayed with the preparation of active compound at the stated rate of application. One day after this treatment, the plants are inoculated with an aqueous spore suspension of Alternaria solani. […] Then the plants are placed in an incubation cabinet at approximately 20° C. and a relative atmospheric humidity of 96%.

[3] = tested on: Pyrenophora teres; test: In vivo preventive test on Pyrenophora teres (barley), Example F; conditions: 500 ppm of active ingredient, evaluated 7-9 days after inoculation
Description: Solvent: 49 parts by weight of N,N-dimethylformamide Emulsifier: 1 part by weight of alkylaryl polyglycol ether To produce a suitable preparation of active compound, 1 part by weight of active compound is mixed with the stated amounts of solvent and emulsifier, and the concentrate is diluted with water to the desired concentration. To test for preventive activity, young plants are sprayed with the preparation of active compound at the stated rate of application. One day after this treatment, the plants are inoculated with an aqueous spore suspension of Pyrenophora teres. […] Then the plants are placed in a greenhouse at a temperature of approximately 20° C. and a relative atmospheric humidity of approximately 80%.

[4] = tested on: Aflatoxins production by Aspergillus parasiticus; assay type: cell-based
[5] = tested on: Aspergillus parasiticus; assay type: cell-based; conditions: 7 days at 20° C., OD620nm

| Molecule | logP [1] | Efficacy [2] [%] | Efficacy [3] [%] | % Inhibition of Aflatoxin at 50 μM [4] [%] | % Inhibition of fungal growth at 50 μM [5] [%] | chromatographic logP [1] |
| --- | --- | --- | --- | --- | --- | --- |
| Cc1cc(C(=O)NC[Si](C)(C)c2ccc(Cl)cc2Cl)c(C)o1 [Example 33] | 4.46 | – | – | – | – | – |
| Cc1cc(C(=O)N(C[Si](C)(C)c2cccc(Cl)c2)C2CC2)c(C)o1 [Example 29] | 4.78 | 94 | 95 | – | – | – |
| Cn1nc(C(F)F)c(C(=O)N(C[Si](C)(C)Cc2cccc(Cl)c2)C2CC2)c1F [Example 66] | 4.44 | 100 | 100 | 100 | 100 | – |
| Cn1cc(C(=O)NC[Si](C)(C)c2ccc(Cl)cc2Cl)c(C(F)F)c1 [Example 34] | 4.06 | – | – | – | – | – |
| Cn1nc(C(F)F)c(C(=O)NC[Si](C)(C)c2cccc(Cl)c2)c1F [Example 26] | 3.55 | 100 | 100 | 100 | 100 | – |
| Cn1nc(C(F)F)c(C(=O)N(C[Si](C)(C)Cc2cc(Cl)cc(Cl)c2)C2CC2)c1F [Example 72] | 4.98 | 89 | – | 100 | 100 | – |
| Cc1cc(C(=O)N(C[Si](C)(C)c2cc(Cl)cc(Cl)c2)C2CC2)c(C)o1 [Example 50] | 5.51 | 100 | 95 | – | – | – |
| Cn1cc(C(=O)NC[Si](C)(C)c2cc(Cl)cc(Cl)c2)c(C(F)F)c1 [Example 45] | 4.11 | – | – | – | – | – |
| Cc1cc(C(=O)N(C[Si](C)(C)Cc2ccccc2Cl)C2CC2)c(C)o1 [Example 58] | 5.08 | – | – | – | – | – |
| Cc1cc(C(=O)N(C[Si](C)(C)Cc2ccc(Cl)cc2Cl)C2CC2)c(C)o1 [Example 73] | 5.78 | – | – | – | – | – |
| Cn1nc(C(F)F)c(C(=O)N(C[Si](C)(C)Cc2ccc(Cl)cc2Cl)C2CC2)c1Cl [Example 69] | 5.19 | 100 | 100 | 100 | 85 | – |
| Cc1nc(C(F)F)c(C(=O)N(C[Si](C)(C)c2ccc(Cl)cc2Cl)C2CC2)s1 [Example 43] | 5.00 | 100 | 100 | – | – | – |
| Cc1cc(C(=O)NC[Si](C)(C)c2ccccc2)c(C)o1 [Example 3] | 3.48 | – | – | – | – | – |
| Cn1nc(C(F)F)c(C(=O)NC[Si](C)(C)c2ccccc2)c1F [Example 1] | 3.13 | 100 | 100 | 100 | 93 | – |
| Cc1cc(C(=O)NC[Si](C)(C)c2cc(Cl)cc(Cl)c2)c(C)o1 [Example 44] | 4.54 | – | – | – | – | – |
| Cn1nc(C(F)F)c(C(=O)NC[Si](C)(C)c2cccc(Cl)c2)c1Cl [Example 25] | 3.71 | 100 | 100 | 99 | 84 | – |
| Cn1nc(C(F)F)c(C(=O)NC[Si](C)(C)c2cc(Cl)cc(Cl)c2)c1F [Example 47] | 4.08 | 100 | 95 | 100 | 100 | – |
| Cn1nc(C(F)F)c(C(=O)N(C[Si](C)(C)Cc2cc(Cl)cc(Cl)c2)C2CC2)c1Cl [Example 67] | 5.14 | 78 | – | 100 | 86 | – |
| Cc1nc(C(F)F)c(C(=O)N(C[Si](C)(C)c2cc(Cl)cc(Cl)c2)C2CC2)s1 [Example 53] | 4.92 | 80 | 95 | – | – | – |
| Cn1nc(C(F)F)c(C(=O)NC[Si](C)(C)c2ccccc2Cl)c1Cl [Example 14] | 3.69 | – | – | – | – | – |
| Cn1nc(C(F)F)c(C(=O)N(C[Si](C)(C)Cc2ccccc2Cl)C2CC2)c1Cl [Example 60] | 4.56 | 95 | 95 | 100 | 84 | – |

| Molecule | logP [1] | Efficacy [2] [%] | Efficacy [3] [%] | % Inhibition of Aflatoxin at 50 μM [4] [%] | % Inhibition of fungal growth at 50 μM [5] [%] | chromatographic logP [1] |
| --- | --- | --- | --- | --- | --- | --- |
| Cn1cc(C(=O)N(C[Si](C)(C)Cc2cccc(Cl)c2)C2CC2)c(C(F)F)c1 [Example 64] | 4.62 | – | – | – | – | – |
| Cc1cc(C(=O)NC[Si](C)(C)c2ccccc2Cl)c(C)o1 [Example 13] | 3.85 | – | – | – | – | – |
| Cn1nc(C(F)F)c(C(=O)N(C[Si](C)(C)c2ccsc2)C2CC2)c1F [Example 76] | 3.55 | 94 | 100 | 100 | 100 | – |
| Cn1nc(C(F)F)c(C(=S)NC[Si](C)(C)c2ccccc2Cl)c1F [Example 16] | 4.11 | 70 | – | – | – | – |
| Cn1nc(C(F)F)c(C(=O)N(C[Si](C)(C)Cc2ccccc2)C2CC2)c1Cl [Example 54] | 4.20 | 95 | 100 | – | – | – |
| Cn1nc(C(F)F)c(C(=O)NC[Si](C)(C)c2ccc(Cl)cc2Cl)c1Cl [Example 35] | 4.25 | 90 | – | – | – | – |
| Cc1cc(C(=O)N(C[Si](C)(C)c2ccccc2Cl)C2CC2)c(C)o1 [Example 22] | 4.74 | 95 | 80 | – | – | – |
| Cn1cc(C(=O)N(C[Si](C)(C)Cc2ccc(Cl)cc2Cl)C2CC2)c(C(F)F)c1 [Example 68] | 5.19 | 70 | – | – | – | – |
| Cn1nc(C(F)F)c(C(=S)N(C[Si](C)(C)Cc2ccccc2Cl)C2CC2)c1F [Example 62] | 5.00 | 80 | 100 | – | – | – |
| Cc1cc(C(=O)NC[Si](C)(C)c2cccc(Cl)c2)c(C)o1 [Example 23] | 3.92 | – | – | – | – | – |
| Cc1cc(C(=O)N(C[Si](C)(C)Cc2ccccc2)C2CC2)c(C)o1 [Example 56] | 4.67 | – | – | – | – | – |
| N-cyclohexyl-N-{[dimethyl(phenyl)silyl]methyl}-2-furamide [Example 5] | 3.73 | – | – | – | – | – |
| Cn1cc(C(=O)NC[Si](C)(C)c2cccc(Cl)c2)c(C(F)F)c1 [Example 24] | 3.58 | – | – | – | – | – |
| Cn1nc(C(F)F)c(C(=S)NC[Si](C)(C)c2ccc(Cl)cc2Cl)c1F [Example 37] | 4.74 | – | – | – | – | – |
| Cn1nc(C(F)F)c(C(=O)N(C[Si](C)(C)c2ccc3ccccc3c2)C2CC2)c1Cl [Example 77] | 4.51 | – | – | – | – | – |
| Cn1nc(C(F)F)c(C(=S)N(C[Si](C)(C)Cc2ccccc2)C2CC2)c1F [Example 57] | 4.67 | 95 | – | – | – | – |
| Cn1nc(C(F)F)c(C(=S)N(C[Si](C)(C)Cc2ccc(Cl)cc2Cl)C2CC2)c1F [Example 71] | 5.57 | 95 | 100 | – | – | – |
| Cc1nn(C)c(F)c1C(=O)N(C[Si](C)(C)c1ccccc1)C1CC1 [Example 8, N-cyclopropyl-N-{[dimethyl(phenyl)silyl]methyl}-5-fluoro-1,3-dimethyl-1H-pyrazole-4-carboxamide] | – | – | – | – | – | 3.19 |
| Cn1cc(C(=O)N(C[Si](C)(C)Cc2ccccc2Cl)C2CC2)c(C(F)F)c1 [Example 59] | 4.56 | – | 70 | – | – | – |
| Cc1cc(C(=O)N(C[Si](C)(C)Cc2cccc(Cl)c2)C2CC2)c(C)o1 [Example 63] | 5.11 | 70 | – | – | – | – |
| C[Si](C)(CN(C(=O)c1ccsc1I)C1CC1)c1ccc2ccccc2c1 [Example 78] | 5.17 | – | – | – | – | – |
